In ChEMBL document CHEMBL3351837 (Bioorg Med Chem Lett, 2014) one finds half-life, IC50 and Papp data, which are given here for 17 compounds.

A word on the half-life: it is the time in which the quantity being followed falls by half. One may read the IC50 as the concentration at which inhibition is half-maximal. As a reminder, the Papp is the rate of passage across a membrane or cell layer, normalised by area and donor concentration.

SMILES strings stand for the structures.

The nature of series [1]: Half life in human plasma after 60 mins by […] analysis. In kind it is ADME, cell-free.
Series [2] addresses 3',5'-cyclic-AMP phosphodiesterase 4D (Homo sapiens, UniProt Q08499).
Description: Inhibition of human recombinant PDE4D2 activity assessed as residual cAMP concentration by HTRF assay
Series [3] in a line: Half life in human lung S9 fraction after 60 mins by […] analysis. In kind it is ADME, tissue-based.
Series [4] concerns the target 3',5'-cyclic-AMP phosphodiesterase 4B (Homo sapiens, UniProt Q07343). Briefly: Inhibition of human recombinant PDE4B1 activity assessed as residual cAMP concentration by HTRF assay. On the technique in general: TR-FRET usually uses a lanthanide donor and a delayed reading to cut background.
The nature of series [5]: Half life in human lung homogenate after 60 mins by […] analysis. Format: ADME, tissue-based.
A short description of series [6]: Apparent permeability of the compound at pH 7.4 buffer by PAMPA. In kind it is physicochemical. For orientation: PAMPA measures passive passage across an artificial lipid membrane.

3',5'-cyclic-AMP phosphodiesterase 4B, sequence (Q07343 whole entry): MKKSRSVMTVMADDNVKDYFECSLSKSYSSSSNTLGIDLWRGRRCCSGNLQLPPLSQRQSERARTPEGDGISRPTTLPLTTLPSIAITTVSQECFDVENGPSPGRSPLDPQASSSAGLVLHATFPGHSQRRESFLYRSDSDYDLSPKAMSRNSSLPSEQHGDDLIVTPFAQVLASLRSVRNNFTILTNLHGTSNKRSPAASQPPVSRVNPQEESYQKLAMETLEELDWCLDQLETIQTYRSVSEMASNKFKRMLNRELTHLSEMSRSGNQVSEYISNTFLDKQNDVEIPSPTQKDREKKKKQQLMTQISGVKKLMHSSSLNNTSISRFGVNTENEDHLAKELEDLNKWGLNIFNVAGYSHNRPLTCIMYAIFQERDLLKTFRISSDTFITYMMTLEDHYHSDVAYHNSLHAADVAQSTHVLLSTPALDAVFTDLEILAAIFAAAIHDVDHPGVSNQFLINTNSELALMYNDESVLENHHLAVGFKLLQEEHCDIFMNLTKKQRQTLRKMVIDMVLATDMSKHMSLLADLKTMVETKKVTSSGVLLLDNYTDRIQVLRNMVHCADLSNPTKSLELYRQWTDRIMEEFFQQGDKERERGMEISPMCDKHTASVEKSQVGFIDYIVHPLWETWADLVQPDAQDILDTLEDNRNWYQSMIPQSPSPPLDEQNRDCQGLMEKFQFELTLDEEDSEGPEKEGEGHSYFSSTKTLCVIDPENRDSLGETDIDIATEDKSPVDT
3',5'-cyclic-AMP phosphodiesterase 4D, sequence (Q08499 whole entry): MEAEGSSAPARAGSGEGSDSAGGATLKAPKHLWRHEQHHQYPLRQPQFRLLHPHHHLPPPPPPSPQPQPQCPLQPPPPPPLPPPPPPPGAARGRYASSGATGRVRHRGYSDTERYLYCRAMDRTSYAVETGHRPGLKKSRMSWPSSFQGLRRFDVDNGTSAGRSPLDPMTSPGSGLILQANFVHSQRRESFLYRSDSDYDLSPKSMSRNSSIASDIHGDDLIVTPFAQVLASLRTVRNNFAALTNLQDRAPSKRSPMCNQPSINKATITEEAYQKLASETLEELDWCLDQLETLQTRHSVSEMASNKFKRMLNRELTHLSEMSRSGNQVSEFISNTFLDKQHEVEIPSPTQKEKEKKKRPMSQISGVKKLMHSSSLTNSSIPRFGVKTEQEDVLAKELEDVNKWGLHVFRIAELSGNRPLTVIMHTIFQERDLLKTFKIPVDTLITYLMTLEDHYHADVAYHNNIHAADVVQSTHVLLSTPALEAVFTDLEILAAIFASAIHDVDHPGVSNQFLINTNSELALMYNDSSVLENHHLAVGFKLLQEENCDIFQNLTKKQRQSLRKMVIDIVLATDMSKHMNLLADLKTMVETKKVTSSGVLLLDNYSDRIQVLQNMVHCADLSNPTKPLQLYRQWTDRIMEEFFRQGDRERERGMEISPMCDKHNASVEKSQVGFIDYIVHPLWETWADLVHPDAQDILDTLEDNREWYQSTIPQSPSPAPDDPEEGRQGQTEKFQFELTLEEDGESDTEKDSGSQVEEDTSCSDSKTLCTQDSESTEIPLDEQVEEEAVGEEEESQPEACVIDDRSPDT

Consider `O=C(Nc1c(Cl)cncc1Cl)c1ccc(OC(F)F)c(OCCCNC2CCOC2=O)c1` (configuration not stated), for which the half-life in series [1] is less than 5 min; in series [3], greater than 60 min; in series [5] it was greater than 60 min. In addition, the IC50 in series [2] was determined as 18 nM; in series [4], 5.4 nM.
Consider `O=C(Nc1c(Cl)cncc1Cl)c1ccc(OC(F)F)c(OCCCN[C@@H]2CCOC2=O)c1`, for which the IC50 came out at 7.3 nM in series [2] and 12 nM in series [4].
Consider `O=C(Nc1c(Cl)cncc1Cl)c1ccc(OC(F)F)c(OCCCN[C@H]2CCOC2=O)c1`, for which the IC50 in series [2] was found to be 48 nM; in series [4] it was 11 nM.
For `O=C(Nc1c(Cl)cncc1Cl)c1ccc(OC(F)F)c(OCCCNC(CCO)C(=O)O)c1` (configuration not stated), in series [6], the Papp came out at 0.02 ×10⁻⁶ cm/s. Besides, the half-inhibitory concentration (IC50) is 2300 nM in series [2] and 740 nM in series [4].
For `O=C(Nc1c(Cl)cncc1Cl)c1ccc(OC(F)F)c(OCCCN[C@H](CCO)C(=O)O)c1`, the IC50 in series [2] came out at 7200 nM; in series [4], 1700 nM.
For `O=C(Nc1c(Cl)cncc1Cl)c1ccc(OC(F)F)c(OCCCN[C@@H](CCO)C(=O)O)c1` the same measures were greater than 10000 nM and 2700 nM.
Consider `O=C(Nc1c(Cl)cncc1Cl)c1ccc(OC(F)F)c(OCCCSC2CCOC2=O)c1` (configuration not stated), for which the results for the half-life in series [1], in series [3] and in series [5] were less than 5 min, greater than 60 min and 39 min, respectively. In addition, the IC50 turned out to be 5.5 nM in series [2] and 1.8 nM in series [4].
Regarding `O=C(Nc1c(Cl)cncc1Cl)c1ccc(OC(F)F)c(OCCCSC(CCO)C(=O)O)c1` (configuration not stated), the apparent permeability (Papp) in series [6] came out at 0.14 ×10⁻⁶ cm/s. Moreover, the values for the IC50 in series [2] and in series [4] were 9.9 nM and 5.5 nM, respectively.
For `O=C(Nc1c(Cl)cncc1Cl)c1ccc(OC(F)F)c(OCCCCNC2CCOC2=O)c1` (configuration not stated), the apparent permeability (Papp) in series [6] came to 4.7 ×10⁻⁶ cm/s. The half-life was less than 5 min in series [1], greater than 60 min in series [3] and greater than 60 min in series [5]. In addition, the figures for the half-maximal inhibitory concentration (IC50) in series [2] and in series [4] were 6.6 nM and 4 nM, respectively.
With `O=C(Nc1c(Cl)cncc1Cl)c1ccc(OC(F)F)c(OCCCCNC(CCO)C(=O)O)c1` (configuration not stated), the Papp in series [6] came out at 0.03 ×10⁻⁶ cm/s. Moreover, the IC50 in series [2] was found to be 150 nM; in series [4] it was 180 nM.
With `O=C(Nc1c(Cl)cncc1Cl)c1ccc(OC(F)F)c(OCCCCSC2CCOC2=O)c1` (configuration not stated), the half-life in series [1] is less than 5 min; in series [3] it was greater than 60 min. Further, the results for the IC50 in series [2] and in series [4] were 1.8 nM and 4.7 nM, respectively.
`O=C(Nc1c(Cl)cncc1Cl)c1ccc(OC(F)F)c(OCCCCSC(CCO)C(=O)O)c1` (configuration not stated): the Papp in series [6] was determined as 0.05 ×10⁻⁶ cm/s. Also, the IC50 in series [2] came out at 4.5 nM; in series [4] it was 8.8 nM.
Regarding `O=C(Nc1c(Cl)c[n+]([O-])cc1Cl)c1ccc(OC(F)F)c(OCCCNC2CCOC2=O)c1` (configuration not stated), the half-life in series [1] stood at 8 min. The results for the half-inhibitory concentration (IC50) in series [2] and in series [4] were 170 nM and 88 nM, respectively.
Regarding `COC(=O)CNCCCOc1cc(C(=O)Nc2c(Cl)cncc2Cl)ccc1OC(F)F`, the apparent permeability (Papp) in series [6] is 8.9 ×10⁻⁶ cm/s. This compound also registered a half-life in series [1] of 19 min. Besides, the IC50 in series [2] came to 32 nM; in series [4], 21 nM.
With `O=C(O)CNCCCOc1cc(C(=O)Nc2c(Cl)cncc2Cl)ccc1OC(F)F`, in series [6], the Papp is less than 0.01 ×10⁻⁶ cm/s. The IC50 in series [2] came to 1500 nM; in series [4], 910 nM.
In the case of `CC(C)NCC(O)COc1cccc2ccccc12` (configuration not stated) [PROPRANOLOL], the Papp in series [6] amounted to 10 ×10⁻⁶ cm/s.
Take `CNC(=C[N+](=O)[O-])NCCSCc1ccc(CN(C)C)o1` [RANITIDINE]: the Papp in series [6] was 0.14 ×10⁻⁶ cm/s.
